Assay results: patent publication US20210246115A1 (Bioimics AB, priority 2017, published 2021)
Structures can show the parent of a compound that is named as a salt.

How the values were obtained:
[1] = system: E. coli RNase P RNA, M1 RNA; assay: Inhibition of bacterial RNase P activity, IC50 determination (cleavage of pATSerUG by M1 RNA); format: biochemical; details: NI: No inhibition
[2] = system: Escherichia coli (ATCC25922); assay: MIC, broth microdilution (CLSI), Escherichia coli; details: Escherichia coli, ATCC25922, read-out: E. coli ATCC 25922 MIC, Table XIII
[3] = system: Staphylococcus aureus (ATCC25923); assay: MIC, broth microdilution (CLSI), Staphylococcus aureus ATCC25923; details: Staphylococcus aureus, ATCC25923, read-out: S. aureus ATCC 25923 MIC

| Compound | IC50 [1] | MIC [2] | MIC [3] | IC50 ([1]; hydrochloride salt) |
| --- | --- | --- | --- | --- |
| Cc1cccc(-c2ccc3c(c2)c(C(=O)N[C@H]2CC[C@H](N)CC2)cn3CC2CCCCC2)c1.Cl [Compound 269, N-((1r,4r)-4-aminocyclohexyl)-1-(cyclohexylmethyl)-5-(m-tolyl)-1H-indole-3-carboxamide hydrochloride salt] | 29 µM | > 512 µg/mL | 8 µg/mL | – |
| COc1cc(OC)cc(C(CC(=O)N[C@H]2CC[C@H](N)CC2)c2cn(CC3CCCCC3)c3ccccc23)c1.Cl (stereo partly drawn) [Compound 127, N-((1R,4R)-4-aminocyclohexyl)-3-(1-(cyclohexylmethyl)-1H-indol-3-yl)-3-(3,5-dimethoxyphenyl) propanamide hydrochloride salt] | 19 µM | > 512 µg/mL | 512 µg/mL | – |
| Cc1cccc(C(CC(=O)N[C@H]2CC[C@H](CN)CC2)c2cn(CC3CCCCC3)c3ccc(Br)cc23)c1.Cl (stereo partly drawn) [Compound 206, N-((1R,4R)-4-(aminomethyl)cyclohexyl)-3-(5-bromo-1-(cyclohexylmethyl)-1H-indol-3-yl)-3-(m-tolyl)propanamide hydrochloride salt] | 23 µM | > 512 µg/mL | 19 µg/mL | – |
| Cc1cccc(C(CC(=O)NCCC2CCNCC2)c2cn(Cc3ccccc3)c3ccccc23)c1.Cl (stereo not drawn) [Compound 55, 3-(1-benzyl-1H-indol-3-yl)-N-(2-(piperidin-4-yl)ethyl)-3-(m-tolyl)propanamide hydrochloride salt] | – | 264 µg/mL | 66 µg/mL | 172 µM |
| O=C(CC(c1cn(CC2CCCCC2)c2ccccc12)C1CCNCC1)NCCC1CCNCC1 (stereo not drawn) [Compound 145, 3-(1-(cyclohexylmethyl)-1H-indol-3-yl)-3-(piperidin-4-yl)-N-(2-(piperidin-4-yl)ethyl)propanamide hydrochloride salt] | 1480 µM | > 512 µg/mL | 512 µg/mL | – |
| Cc1cccc(C(CC(=O)NCC2CNCCO2)c2cn(CC3CCCCC3)c3ccc(Br)cc23)c1.Cl (stereo not drawn) [Compound 281, 3-(5-bromo-1-(cyclohexylmethyl)-1H-indol-3-yl)-N-(morpholin-2-ylmethyl)-3-(m-tolyl)propanamide hydrochloride salt] | 168 µM | > 512 µg/mL | 19 µg/mL | – |
| N[C@H]1CC[C@@H](NC(=O)c2coc(CN(CCc3c[nH]c4ccccc34)Cc3ccc(F)cc3)n2)CC1 [Compound 61, 2-(((2-(1H-indol-3-yl)ethyl)(4-fluorobenzyl)amino)methyl)-N-((1s,4s)-4-aminocyclohexyl) oxazole-4-carboxamide hydrochloride salt] | 182 µM | 251 µg/mL | 63 µg/mL | – |
| N[C@H]1CC[C@H](CN2CCC(c3cn(CC4CCCCC4)c4ccccc34)CC2)CC1 [Compound 217, (1R,4R)-4-((4-(1-(cyclohexylmethyl)-1H-indol-3-yl)piperidin-1-yl)methyl)cyclohexan-1-amine hydrochloride salt] | 133 µM | 31 µg/mL | 8 µg/mL | – |
| Cl.NC1CCC(NC(=O)CC(c2ccnc(O)c2)c2cn(CC3CCCCC3)c3ccccc23)CC1 [Compound 157, N-((1S,4S)-4-aminocyclohexyl)-3-(1-(cyclohexylmethyl)-1H-indol-3-yl)-3-(2-hydroxypyridin-4-yl)propanamide hydrochloride salt] | 3.4 µM | 262 µg/mL | 131 µg/mL | – |
| Cl.NC1CCC(NC(=O)Cc2cn(CC3CCCCC3)c3ccc(-c4ccccc4OC(F)(F)F)cc23)CC1 [Compound 234, N-((1S,4S)-4-aminocyclohexyl)-2-(1-(cyclohexylmethyl)-5-(2-(trifluoromethoxy)phenyl)-1H-indol-3-yl)acetamide hydrochloride salt] | 7 µM | 289 µg/mL | 9 µg/mL | – |
| Cc1cccc(C(CC(=O)N[C@H]2CCCC[C@@H]2N)c2cn(CC3CCCCC3)c3ccccc23)c1.Cl (stereo partly drawn) [Compound 189, N-((1S,2S)-2-aminocyclohexyl)-3-(1-(cyclohexylmethyl)-1H-indol-3-yl)-3-(m-tolyl)propanamide hydrochloride salt] | 16 µM | > 512 µg/mL | 16 µg/mL | – |
| Cc1cccc(C(CC(=O)NC2CCNCC2)c2cn(CC3CC3)c3ccccc23)c1.Cl (stereo not drawn) [Compound 123, 3-(1-(cyclopropylmethyl)-1H-indol-3-yl)-N-(piperidin-4-yl)-3-(m-tolyl)propanamide hydrochloride salt] | 389 µM | 256 µg/mL | 64 µg/mL | – |
| Cc1cccc(C(CCN(C)C2CCNCC2)c2cn(CC3CCCCC3)c3ccc(Br)cc23)c1 (stereo not drawn) [Compound 291, N-(3-(5-bromo-1-(cyclohexylmethyl)-1H-indol-3-yl)-3-(m-tolyl)propyl)-N-methylpiperidin-4-amine hydrochloride salt] | 10 µM | 10 µg/mL | 2 µg/mL | – |
| Cc1cccc(C(CC(=O)N[C@H]2CC[C@H](N)CC2)c2cn(CC3CCCCC3)c3ccc(Br)cc23)c1.Cl (stereo partly drawn) [Compound 126, N-((1R,4R)-4-aminocyclohexyl)-3-(5-bromo-1-(cyclohexylmethyl)-1H-indol-3-yl)-3-(m-tolyl)propanamide hydrochloride salt] | 5.8 µM | > 512 µg/mL | 4 µg/mL | – |
| CN(C)CCNC(=O)CC(c1cn(CC2CCCCC2)c2ccccc12)C1CCNCC1 (stereo not drawn) [Compound 108, 3-(1-(cyclohexylmethyl)-1H-indol-3-yl)-N-(2-(dimethylamino)ethyl)-3-(piperidin-4-yl) propanamide hydrochloride salt] | 2080 µM | > 512 µg/mL | > 512 µg/mL | – |
| Cl.NC1CCC(NC(=O)CCc2cn(CC3CCCCC3)c3ccc(-c4ccccc4Cl)cc23)CC1 [Compound 239, N-((1S,4S)-4-aminocyclohexyl)-3-(5-(2-chlorophenyl)-1-(cyclohexylmethyl)-1H-indol-3-yl)propanamide hydrochloride salt] | 2.9 µM | 271 µg/mL | 4 µg/mL | – |
| Cc1cccc(C(CC(=O)NC2CCC(N)CC2)c2cn(CC3CCCCCC3)c3ccccc23)c1.Cl [Compound 238, N-((1S,4S)-4-aminocyclohexyl)-3-(1-(cycloheptylmethyl)-1H-indol-3-yl)-3-(m-tolyl)propanamide hydrochloride salt] | 9.2 µM | > 512 µg/mL | 4 µg/mL | – |

Now from value to compound:

| IC50 [1] | MIC [2] | MIC [3] | IC50 ([1]; hydrochloride salt) | Compound |
| --- | --- | --- | --- | --- |
| 6.6 µM | 5 µg/mL | 2 µg/mL | – | NC1CCC(NCCCc2cn(CC3CCCCC3)c3ccc(-c4cccc(OC(F)(F)F)c4)cc23)CC1 [Compound 242, (1S,4S)-N1-(3-(1-(cyclohexylmethyl)-5-(3-(trifluoromethoxy)phenyl)-1H-indol-3-yl)propyl)cyclohexane-1,4-diamine hydrochloride salt] |
| 15.4 µM | 75 µg/mL | 2 µg/mL | – | Cc1cccc(C(CC(=O)NC2CCC(NC(=N)N)CC2)c2cn(CC3CCCCC3)c3ccccc23)c1 (stereo not drawn) [Compound 201, 3-(1-(cyclohexylmethyl)-1H-indol-3-yl)-N-(4-guanidinocyclohexyl)-3-(m-tolyl) propanamide hydrochloride salt] |
| 41 µM | 64 µg/mL | 32 µg/mL | – | Cc1cccc(C(CC(=O)NC2CCNCC2)c2cn(Cc3ccccc3)c3ccccc23)c1.Cl (stereo not drawn) [Compound 80, 3-(1-benzyl-1H-indol-3-yl)-N-(piperidin-4-yl)-3-(m-tolyl)propanamide hydrochloride salt] |
| 164 µM | 133 µg/mL | 66 µg/mL | – | Cl.O=C(CCc1cn(CC2CCC(F)(F)CC2)c2ccc(Br)cc12)NC1CCNCC1 [Compound 286, 3-(5-bromo-1-((4,4-difluorocyclohexyl)methyl)-1H-indol-3-yl)-N-(piperidin-4-yl)propanamide hydrochloride salt] |
| 71 µM | 136 µg/mL | 34 µg/mL | – | Cc1cccc(C(CC(=O)NC2CCNCC2)c2cn(CC3CCC(F)(F)CC3)c3ccccc23)c1.Cl (stereo not drawn) [Compound 282, 3-(1-((4,4-difluorocyclohexyl)methyl)-1H-indol-3-yl)-N-(piperidin-4-yl)-3-(m-tolyl)propanamide hydrochloride salt] |
| 19 µM | 32 µg/mL | 8 µg/mL | – | Cc1cccc(C(CC(=O)NCCC2CCNCC2)c2cn(CC3CCCCC3)c3ccc(F)cc23)c1.Cl (stereo not drawn) [Compound 119, 3-(1-(cyclohexylmethyl)-5-fluoro-1H-indol-3-yl)-N-(2-(piperidin-4-yl)ethyl)-3-(m-tolyl)propanamide hydrochloride salt] |
| 103 µM | 131 µg/mL | 16 µg/mL | – | Cc1cccc(C(CC(=O)NCC2CNCCO2)c2cn(CC3CCCCC3)c3ccccc23)c1.Cl (stereo not drawn) [Compound 280, 3-(1-(cyclohexylmethyl)-1H-indol-3-yl)-N-(morpholin-2-ylmethyl)-3-(m-tolyl)propanamide hydrochloride salt] |
| 52 µM | 256 µg/mL | 8 µg/mL | – | Cc1cccc(C(CC(=O)N[C@H]2CC[C@H](N(C)C)CC2)c2cn(CC3CCCCC3)c3ccccc23)c1.Cl (stereo partly drawn) [Compound 146, 3-(1-(cyclohexylmethyl)-1H-indol-3-yl)-N-((1R,4R)-4-(dimethylamino)cyclohexyl)-3-(m-tolyl)propanamide hydrochloride salt] |
| 16 µM | 32 µg/mL | 16 µg/mL | – | Cl.N[C@H]1CC[C@H](NC(=O)CCc2cn(CC3CCCCC3)c3ccc(Br)cc23)CC1 [Compound 156, N-((1R,4R)-4-aminocyclohexyl)-3-(5-bromo-1-(cyclohexylmethyl)-1H-indol-3-yl)propanamide hydrochloride salt] |
| 12 µM | 63 µg/mL | 8 µg/mL | – | Cc1cccc(C(CC(=O)N2CCC(N)CC2)c2cn(CC3CCCCC3)c3ccccc23)c1.Cl (stereo not drawn) [Compound 179, 1-(4-aminopiperidin-1-yl)-3-(1-(cyclohexylmethyl)-1H-indol-3-yl)-3-(m-tolyl)propan-1-one hydrochloride salt] |
